According to patent US20080081078A1, “Prevention of Cell Proliferation by Inhibiting Myosin Light Chain Kinase” (The Board of Trustees of the University of Illinois, priority 2006, published 2008):
Where two headings read alike, the source gives them in different places.

Key:
[1] = system: Mm5MT mouse mammary cancer cells; assay: Annexin V / PI flow cytometry apoptosis assay in Mm5MT cells; assay type: cell-based
Protocol: (§1) The Mm5MT mouse mammary adenocarcinoma cancer cell line was obtained from American Type Culture Collection (ATCC, Manassas, Va., USA) and was maintained in DMEM medium supplemented with 10% fetal bovine serum (FBS) and 100 U/ml penicillin, 100 μg/ml streptomycin. The MatLy-Lu (MLL) sub-line of the Dunning R-3327 prostate adenocarcinoma (graciously provided by B. Lokeshwar, University of Miami) (Lokeshwar et al., Int. J. Cancer 2002; 98:297-309) was maintained in RPMI1640 medium supplemented with 10% FBS, 250 nM dexamethasone, 100 U/ml penicillin and 100 μg/ml streptomycin.
Mm5MT or MLL cells (200,000 cells per well) were seeded in 6-well dishes one day before drug treatment and cultured as described above. On the day of the experiment, media was changed to DMEM supplemented with 0.5% FBS and the cells were treated with drugs as defined by the specific experimental protocol. ML-7 (Biomol, Plymouth Meeting, Pa.) was incubated with cells for 16 h when used alone. When used in combination with etoposide, ML-7 was added to cells 2 h before adding the indicated concentration of etoposide (Calbiochem, La Jolla, Calif.) and the cells were incubated with ML-7 and etoposide for an additional 16 h. The cells were then treated with trypsin, washed twice with cold PBS and re-suspended in 100 μl of buffer containing 10 mM Hepes, pH 7.4, 140 mM NaCl and 2.5 mM CaCl2 (binding buffer). […] Next, 400 μl of binding buffer was added per sample and the cells were analyzed cytofluorometrically using a Coulter Epics Elite ESP flow cytometer (Ex: 488 nm, Em: 585 nm). At least 10,000 cells were counted per analysis and cells that stained positive for annexin V and PI were judged to be apoptotic.
(§2) Cells were grown in culture dishes in Dulbecco's Modified Eagle Medium (Gibco BRL, Gaithersburg, Md.) supplemented with 10% FBS and 1% penicillin and streptomycin. […] The floating and attached cells were combined and analyzed using conventional methods.
(§3) To quantify apoptosis, cells were washed twice with cold PBS, resuspended in 100 μl of 10 mM Hepes, pH 7.4, 140 mM NaCl, 2.5 mM CaCl2 (Binding Buffer). […] After incubation, 400 μl of binding buffer was added per sample and cells were analyzed cytofluorimetrically using a Coulter Epics Elite ESP flow cytometer (excitation wavelength: 488 nm, emission wavelength: 585 nm). At least 10,000 cells were counted per analysis and cells that stained positive for Annexin V and PI were considered apoptotic.
The combined effects of ML-7 and etoposide to induce apoptosis in mouse Mm5MT mammary cancer cells was determined by pre-treating cells with vehicle (FIG. 9, open bar) or 10 μM ML-7 (shaded bar) for 2 h. Varying concentrations of etoposide (1-1000 μM) were then added and apoptosis was quantified 16 h later. […]

[2] = system: precancerous mammary alveolar lesions (MAL); assay: Mouse mammary gland organ culture, DMBA-induced mammary alveolar lesions; assay type: cell-based, Balb/c mice
Protocol: Mammary glands obtained from young Balb/c mice that are exposed to 7,12-dimethylbenz(a)anthracene (DMBA) for 24 h in culture to form precancerous lesions in 24 days. The procedure has been successfully used to determine efficacy of chemopreventive agents and is described in detail elsewhere. (Mehta et al. PPARγ ligand and retinoids prevent preneoplastic mammary lesions. J. Natl Cancer Instit 2000; 92:418-23). Briefly, 70 mammary glands from 35 Balb/c mice were divided into seven groups of 10 glands each and incubated in serum-free medium containing insulin, prolactin (5 μg/ml each), aldosterone and hydrocortisone (1 μg/ml each) for 10 days. DMBA (2 μg/ml) was included in the medium for 24 h on day 3. […] The glands were fixed in formalin and stained with alum carmine and evaluated for MAL. Percent inhibition was calculated by comparing the incidence in the control glands with the treated groups.
Mammary glands obtained from young Balb/c mice were exposed to DMBA as described above and MAL formation was monitored. […] (Mehta et al. PPARγ ligand and retinoids prevent preneoplastic mammary lesions. J. Natl Cancer Instit 2000; 92:418-23) In the present study, we evaluated effects of etoposide and ML-7 at 0.1, 1.0 and 10.0 μM concentrations on the development of MAL in organ culture. […] Percentage inhibition was calculated by comparing the incidence in the control glands with the treated groups. […]

[3] = system: MLL rat prostate cancer cells; assay: Annexin V / PI flow cytometry apoptosis assay in MLL (MatLyLu) cells; assay type: cell-based
Protocol: as §1
Mm5MT or MLL cells (200,000 cells per well) were seeded in 6-well dishes one day before drug treatment and cultured as described above. On the day of the experiment, media was changed to DMEM supplemented with 0.5% FBS and the cells were treated with drugs as defined by the specific experimental protocol. ML-7 (Biomol, Plymouth Meeting, Pa.) was incubated with cells for 16 h when used alone. When used in combination with etoposide, ML-7 was added to cells 2 h before adding the indicated concentration of etoposide (Calbiochem, La Jolla, Calif.) and the cells were incubated with ML-7 and etoposide for an additional 16 h. The cells were then treated with trypsin, washed twice with cold PBS and re-suspended in 100 μl of buffer containing 10 mM Hepes, pH 7.4, 140 mM NaCl and 2.5 mM CaCl2 (binding buffer). Then, 5 μl of FITC-conjugated annexin V (Pharmingen, San Diego, Calif.) and 10 μl of propidium iodide (PI) (50 μg/ml) were added and cells were incubated in the dark at room temperature for 15 min. Next, 400 μl of binding buffer was added per sample and the cells were analyzed cytofluorometrically using a Coulter Epics Elite ESP flow cytometer (Ex: 488 nm, Em: 585 nm). At least 10,000 cells were counted per analysis and cells that stained positive for annexin V and PI were judged to be apoptotic.
as §2, §3
Cells were collected 16 h after adding etoposide and apoptosis was quantified by FACS analysis.

MLC-P = MLC-P by urea/glycerol gel immunoblotting in Mm5MT cells; assay type: cell-based, mouse; conditions: 10 μM ML-7, 30 μM etoposide or both, 16 h
Protocol: MLC-P protein was measured by urea/glycerol gel immunoblotting. Mm5MT or MLL cancer cells in 6-well plates were treated with ML-7 (10 or 5 μM, respectively) or etoposide (30 μM) or combination of two at indicated concentrations for 16 h. MLC-P in cancer cells was then quantified by the urea/glycerol gel-immunoblotting method. Briefly, cancer cells were fixed in 10% trichloroacetic acid (TCA) containing 10 mM dithiothreitol (DTT). Cell pellets were washed four times with acetone and protein was extracted by dissolving in buffer containing 9 M urea, 10 mM DTT and 20 mM Tris, pH 8.0. […] This antibody recognizes the unphosphorylated and phosphorylated forms of MLC20. Immunoreactive bands were visualized using enhanced chemiluminescence (ECL) detection reagents (Amersham Pharmacia Biotech, Piscataway, N.J.).
MLC-P was measured by urea/glycerol gel-immunoblotting as described above. Un and P identify unphosphorylated and phosphorylated MLC20, respectively. […] This experiment was repeated four times and the data from a representative experiment is shown.

COc1cc([C@@H]2c3cc4c(cc3[C@@H](O[C@@H]3O[C@@H]5CO[C@@H](C)O[C@H]5[C@H](O)[C@H]3O)[C@H]3COC(=O)[C@H]23)OCO4)cc(OC)c1O [etoposide]
EC50 ([1]; etoposide alone, extrapolation (FIG. 8), read-out: concentration of etoposide required to induce apoptosis in 50% of the cells): ~300 µM | EC50 ([1]; minus ML-7, curve fitting (FIG. 9), read-out: concentration of etoposide required for inducing apoptosis in 50% of the cells): 572 µM | EC50 ([1]; plus 10 μM ML-7 (2 h pre-treatment), curve fitting (FIG. 9), read-out: concentration of etoposide required for inducing apoptosis in 50% of the cells): 25.4 µM | EC50 ([1]; plus ML-7 (10 μM), extrapolation (FIG. 8), read-out: concentration of etoposide required to induce apoptosis in 50% of the cells): ~20 µM | MAL formation ([2]; 0.1 μM): did not affect MAL formation | inhibition of incidence of MAL formation compared to control ([2]; 1 and 10 μM): 40-46% | EC50 ([3]; MLL cells, no ML-7 (FIG. 15), read-out: concentration of etoposide required for inducing apoptosis in 50% of the cells): 376 µM | EC50 ([3]; MLL cells, with 5 μM ML-7 pre-treatment (FIG. 15), read-out: concentration of etoposide required for inducing apoptosis in 50% of the cells): 68 µM | EC50 ([3]; MatLyLu cells, etoposide alone (FIG. 7), read-out: half-maximal concentration for producing apoptosis): ~410 µM | EC50 ([3]; MatLyLu cells, etoposide plus 5 μM ML-7 (FIG. 7), read-out: half-maximal concentration for producing apoptosis): ~40 µM | MLC-P (MLC-P): decreased MLC-P
